Where a SMILES comes first, the peptide text is derived from it. Bridges are numbered along the chain shown (N, C = ends). [ ]: non-standard residue; d: D form. The star is where a group is joined. DOTA = O=C(O)CN1CCN(CC(=O)O)CCN(CC(=O)*)CCN(CC(=O)O)CC1; X5 = O=C(O)CN1CCN(CC(=O)O)CCN([C@H](CCC(=O)*)C(=O)O)CC1; Pro(cis-4-F) = O=C(O)[C@@H]1C[C@H](F)CN1; Phe(2-Cl) = N[C@@H](Cc1ccccc1Cl)C(=O)O; Dopa = N[C@@H](Cc1ccc(O)c(O)c1)C(=O)O; Hyp = O=C(O)[C@@H]1C[C@@H](O)CN1; Gly(cBu) = N[C@H](C(=O)O)C1CCC1; Pentanoyl(4-Me) = CC(C)CCC(=O)*; Cit = NC(=O)NCCC[C@H](N)C(=O)O; Butoxycarbonyl = CCCCOC(=O)*; Aze = O=C(O)[C@@H]1CCN1; Nva = CCC[C@H](N)C(=O)O; Abu = CC[C@H](N)C(=O)O; Pentanoyl = CCCCC(=O)*; AEEA = NCCOCCOCC(=O)O; Aib = CC(C)(N)C(=O)O

For assay [1], the target named is T1, uPAR-expressing HEC-265 human endometrial adenocarcinoma cells (Homo sapiens, UniProt Q03405).
T1 construct: Cell surface uPAR-expressing HEC-265 human endometrial adenocarcinoma cells; host or cells: HEC-265
T1 sequence (Q03405 23-335): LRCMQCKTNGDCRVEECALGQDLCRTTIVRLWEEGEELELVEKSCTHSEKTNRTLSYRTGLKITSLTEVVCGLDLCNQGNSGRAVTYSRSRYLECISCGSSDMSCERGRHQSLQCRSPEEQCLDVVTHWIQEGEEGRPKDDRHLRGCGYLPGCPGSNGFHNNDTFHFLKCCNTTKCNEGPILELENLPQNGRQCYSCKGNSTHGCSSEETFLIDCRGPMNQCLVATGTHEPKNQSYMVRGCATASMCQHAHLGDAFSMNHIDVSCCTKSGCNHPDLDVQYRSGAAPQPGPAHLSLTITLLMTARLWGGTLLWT
In words: Competitive FACS binding assay. As to conditions: pIC50 category of FACS binding. An outline of the steps:
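HEC-265 cells incubated 1 h at 4 °C with 10 nM biotinylated uPAR peptide tracer plus increasing test compound, then stained with APC-streptavidin on ice. Median APC fluorescence by flow cytometry; 4PL fit gives pIC50.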

A further assay addresses T2, human uPAR (uPAR-Fc) (Homo sapiens, UniProt Q03405).
T2 construct: comprising amino acids Leu23-Arg303 according to UniProt entry Q03405.1; purchased R&D Systems 10378-UK-100
In words: Surface plasmon resonance (SPR) assay, single cycle kinetics. Format: binding. Particulars: pKD category for uPAR SPR activity assay; uPAR-Fc on Protein A-Chip, single cycle kinetics, 25°C; read-out: pKD CAT (converted). An outline of the steps:
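uPAR-Fc (Leu23-Arg303 extracellular domains, human IgG1 Fc) captured on Protein A chip to ~2000 RU; single-cycle kinetics at 25°C in HEPES running buffer pH 7.4 with 0.1% DMSO. KD from double-referenced sensorgrams fitted to 1:1 Langmuir model, reported as pKD.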

T2 sequence (Q03405 23-303): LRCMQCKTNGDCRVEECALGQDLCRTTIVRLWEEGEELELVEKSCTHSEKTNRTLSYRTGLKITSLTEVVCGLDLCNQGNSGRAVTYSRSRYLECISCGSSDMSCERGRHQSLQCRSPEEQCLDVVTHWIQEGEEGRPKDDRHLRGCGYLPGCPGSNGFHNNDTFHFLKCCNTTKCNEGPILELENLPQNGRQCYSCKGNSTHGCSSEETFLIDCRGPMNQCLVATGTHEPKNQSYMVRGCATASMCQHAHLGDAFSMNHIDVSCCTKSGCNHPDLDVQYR

In turn, `CCCCOC(=O)N[C@H]1CSSC[C@@H](C(N)=O)NC(=O)[C@H](CCC)NC(=O)[C@H]([C@@H](C)CC)NC(=O)[C@@H]2C[C@@H](O)CN2C(=O)[C@@H]2C[C@H](F)CN2C(=O)[C@H](Cc2ccccc2)NC(=O)[C@H](Cc2ccc(O)c(O)c2)NC(=O)[C@H](CCCCNC(=O)CC[C@H](C(=O)O)N2CCN(CC(=O)O)CCN(CC(=O)O)CC2)NC(=O)[C@H]([C@@H](C)O)NC1=O` [UPAR-444, Butoc-[Cys-Thr-Lys(NODAGA)-Dopa-Phe-4Cfp-Hyp-Ile-Nva-Cys]-NH2] (Butoxycarbonyl-CTK(X5)[Dopa]F[Pro(cis-4-F)][Hyp]I[Nva]C-NH2; disulfide 1-10) gave an IC50 in assay [1] of at most 10 nM. In addition, the Kd on human uPAR (uPAR-Fc) is below 1.58 nM.

On to `CC[C@H](C)[C@@H]1NC(=O)[C@@H](C)NC(=O)[C@@H]2CCCN2C(=O)[C@H](Cc2ccccc2)NC(=O)[C@H](Cc2ccc(O)cc2)NC(=O)[C@H](CCCNC(N)=O)NC(=O)[C@H](CCCNC(N)=O)NC(=O)[C@@H](NC(=O)CCC(C)C)CSSC[C@@H](C(N)=O)NC(=O)[C@H](CC(C)C)NC1=O` [UPAR-445, iHex-[Cys-Cit-Cit-Tyr-Phe-Pro-ala-Ile-Leu-Cys]-NH2] ({Pentanoyl(4-Me)}-C[Cit][Cit]YFP[dA]ILC-NH2; disulfide 1-10), for which the IC50 in assay [1] is at most 10 nM. Further, the Kd at human uPAR (uPAR-Fc) was below 1.58 nM.

In assay [1], `CC[C@H](C)[C@@H]1NC(=O)[C@@H]2CCN2C(=O)[C@@H]2CCCN2C(=O)[C@H](Cc2ccccc2)NC(=O)[C@H](Cc2ccc(O)cc2)NC(=O)[C@H](CCC(N)=O)NC(=O)[C@H](CCCNC(N)=O)NC(=O)[C@@H](NC(=O)CCC(C)C)CSSC[C@@H](C(N)=O)NC(=O)[C@H](CC(C)C)NC1=O` [UPAR-446, iHex-[Cys-Cit-Gln-Tyr-Phe-Pro-Aze-Ile-Leu-Cys]-NH2] ({Pentanoyl(4-Me)}-C[Cit]QYFP[Aze]ILC-NH2; disulfide 1-10) gave a 50% inhibitory concentration (IC50) of at most 10 nM. Moreover, on human uPAR (uPAR-Fc), the Kd was below 1.58 nM.

With `CCCCC(=O)N[C@H]1CSSC[C@@H](C(N)=O)NC(=O)[C@H](CCC)NC(=O)[C@H](Cc2ccccc2)NC(=O)[C@@H]2C[C@@H](O)CN2C(=O)[C@@H]2CCCN2C(=O)[C@H](Cc2ccccc2)NC(=O)[C@H](Cc2ccc(O)cc2)NC(=O)[C@H](CCC(N)=O)NC(=O)[C@H](CCCNC(=N)N)NC1=O` [UPAR-447, Pent-[Cys-Arg-Gln-Tyr-Phe-Pro-Hyp-Phe-Nva-Cys]-NH2] (Pentanoyl-CRQYFP[Hyp]F[Nva]C-NH2; disulfide 1-10), in assay [1], the IC50 is at most 10 nM. In addition, the Kd on human uPAR (uPAR-Fc) was below 1.58 nM.

On to `CCCCC(=O)N[C@H]1CSSC[C@@H](C(N)=O)NC(=O)[C@H](CCC)NC(=O)[C@H]([C@@H](C)CC)NC(=O)[C@@H]2C[C@@H](O)CN2C(=O)[C@@H]2CCCN2C(=O)[C@H](Cc2ccccc2)NC(=O)[C@H](Cc2ccc(O)cc2)NC(=O)[C@H](CCCCN)NC(=O)[C@H](CCCNC(=N)N)NC1=O` [UPAR-448, Pent-[Cys-Arg-Lys-Tyr-Phe-Pro-Hyp-Ile-Nva-Cys]-NHz] (Pentanoyl-CRKYFP[Hyp]I[Nva]C-NH2; disulfide 1-10), for which, in assay [1], the IC50 is at most 10 nM. Moreover, at human uPAR (uPAR-Fc), the Kd is below 1.58 nM.

`CC[C@H](C)[C@@H]1NC(=O)[C@@H](C)NC(=O)[C@@H]2CCCN2C(=O)[C@H](Cc2ccccc2)NC(=O)[C@H](Cc2ccc(O)cc2)NC(=O)[C@H](CCC(N)=O)NC(=O)[C@H](CCCNC(=N)N)NC(=O)[C@@H](NC(=O)CCC(C)C)CSSC[C@@H](C(=O)NCCOCCOCC(=O)N[C@@H](CCCCNC(=O)CN2CCN(CC(=O)O)CCN(CC(=O)O)CCN(CC(=O)O)CC2)C(N)=O)NC(=O)[C@H](CC(C)C)NC1=O` [UPAR-449, iHex-[Cys-Arg-Gln-Tyr-Phe-Pro-ala-Ile-Leu-Cys]-O2Oc-Lys(DOTA)-NH2] ({Pentanoyl(4-Me)}-CRQYFP[dA]ILC[AEEA]K(DOTA)-NH2; disulfide 1-10) gave an IC50 in assay [1] of at least 126 nM. Besides, on human uPAR (uPAR-Fc), the Kd was 1.58 to 10 nM.

For `CCCCC(=O)N[C@H]1CSSC[C@@H](C(N)=O)NC(=O)[C@H](CCC)NC(=O)[C@H]([C@@H](C)CC)NC(=O)[C@@H]2C[C@@H](O)CN2C(=O)[C@@H]2CCCN2C(=O)[C@H](Cc2ccccc2Cl)NC(=O)[C@H](Cc2ccc(O)cc2)NC(=O)[C@H](CCCCNC(=O)CN2CCN(CC(=O)O)CCN(CC(=O)O)CCN(CC(=O)O)CC2)NC(=O)[C@H](CCCNC(N)=O)NC1=O` [UPAR-450, Pent-[Cys-Cit-Lys(DOTA)-Tyr-Ocf-Pro-Hyp-Ile-Nva-Cys]-NH2] (Pentanoyl-C[Cit]K(DOTA)Y[Phe(2-Cl)]P[Hyp]I[Nva]C-NH2; disulfide 1-10), in assay [1], the IC50 was at most 10 nM. Further, the Kd at human uPAR (uPAR-Fc) was below 1.58 nM.

The compound `CC[C@@H]1NC(=O)[C@H]([C@@H](C)CC)NC(=O)[C@@H](C)NC(=O)[C@@H]2CCCN2C(=O)[C@H](Cc2ccccc2)NC(=O)[C@H](Cc2ccc(O)cc2)NC(=O)[C@H](CCC(N)=O)NC(=O)[C@H](CCCNC(N)=O)NC(=O)[C@@H](NC(=O)CCC(C)C)CSSC[C@@H](C(N)=O)NC1=O` [UPAR-451, iHex-[Cys-Cit-Gln-Tyr-Phe-Pro-ala-Ile-Abu-Cys]-NH2] ({Pentanoyl(4-Me)}-C[Cit]QYFP[dA]I[Abu]C-NH2; disulfide 1-10) showed an IC50 in assay [1] of at most 10 nM. Moreover, the Kd on human uPAR (uPAR-Fc) was 1.58 to 10 nM.

Regarding `CC[C@H](C)[C@@H]1NC(=O)C(C)(C)NC(=O)[C@@H]2CCCN2C(=O)[C@H](Cc2ccccc2)NC(=O)[C@H](Cc2ccc(O)cc2)NC(=O)[C@H](CCCCNC(=O)CN2CCN(CC(=O)O)CCN(CC(=O)O)CCN(CC(=O)O)CC2)NC(=O)[C@H](CCCNC(N)=O)NC(=O)[C@@H](NC(=O)CCC(C)C)CSSC[C@@H](C(N)=O)NC(=O)[C@H](CC(C)C)NC1=O` [UPAR-452, iHex-[Cys-Cit-Lys(DOTA)-Tyr-Phe-Pro-Aib-Ile-Leu-Cys]-NH2] ({Pentanoyl(4-Me)}-C[Cit]K(DOTA)YFP[Aib]ILC-NH2; disulfide 1-10), the IC50 in assay [1] was at most 10 nM. Further, the Kd at human uPAR (uPAR-Fc) is below 1.58 nM.

Consider `CC(C)CCC(=O)N[C@H]1CSSC[C@@H](C(N)=O)NC(=O)[C@H](CC(C)C)NC(=O)[C@H](C2CCC2)NC(=O)[C@@H](C)NC(=O)[C@@H]2CCCN2C(=O)[C@H](Cc2ccccc2)NC(=O)[C@H](Cc2ccc(O)cc2)NC(=O)[C@H](CCC(N)=O)NC(=O)[C@H](CCCNC(N)=O)NC1=O` [UPAR-453, iHex-[Cys-Cit-Gln-Tyr-Phe-Pro-ala-Cbg-Leu-Cys]-NH2] ({Pentanoyl(4-Me)}-C[Cit]QYFP[dA][Gly(cBu)]LC-NH2; disulfide 1-10), for which, in assay [1], the IC50 was at most 10 nM. Also, the Kd at human uPAR (uPAR-Fc) was 1.58 to 10 nM.

`CCCCC(=O)N[C@H]1CSSC[C@@H](C(N)=O)NC(=O)[C@H](CCC)NC(=O)[C@H]([C@@H](C)CC)NC(=O)[C@@H]2C[C@@H](O)CN2C(=O)[C@@H]2CCCN2C(=O)[C@H](Cc2ccccc2)NC(=O)[C@H](Cc2ccc(O)cc2)NC(=O)[C@H](CCC(N)=O)NC(=O)[C@H](Cc2ccc(O)cc2)NC1=O` [UPAR-454, Pent-[Cys-Tyr-Gln-Tyr-Phe-Pro-Hyp-Ile-Nva-Cys]-NH2] (Pentanoyl-CYQYFP[Hyp]I[Nva]C-NH2; disulfide 1-10): the IC50 in assay [1] was at most 10 nM. The Kd on human uPAR (uPAR-Fc) was below 1.58 nM.

Usually IC50 stands for the midpoint of a concentration-inhibition curve. High values mean weaker potency, low ones greater potency.

Source of the values: EP4610269A1, “UROKINASE PLASMINOGEN ACTIVATOR SURFACE RECEPTOR (UPAR) LIGANDS FOR DIAGNOSTIC OR THERAPEUTIC USE” (3B Pharmaceuticals GmbH, priority 2024, dated 2025).
